Test results reported in patent publication US4465772A, “Method for disinfecting and washing of immobilized lactase” (priority 1980, dated 1984).
Where two headings read alike, the source gives them in different places.

Columns and labels:
[1] = tested on: Mixture of five strains separated from the putrefied milk; assay: Disinfecting power (number of viable cells); type: cell-based; conditions: initial 10^5-10^6/ml
Description: (1) Disinfecting power (number of viable cells)
Milk obtained commercially was putrefied. Mixture of five strains separated from the putrefied milk was suspended in a 0.2 % bouillon solution (pH: 7.0) so that the number of viable cells attains to 10^5 -10^6 /ml. To this suspension was added an equal amount of an undiluted solution having a concentration of each chemical twice as high as that to be applied. A cotton plug was corked to each container and sampling was carried out after 1 hour and 7 days. The sample was diluted at need and plating on the standard agaragar culture medium was effected to count the number of colonies.
The symbols related to the number of viable cells designate as follows: […]

[2] = biological target: T1, immobilized lactase (lactase derived from Aspergillus oryzae) (Aspergillus oryzae, UniProt Q2UCU3); assay: Residual enzyme activity of immobilized lactase after immersion in disinfectant solutions; type: biochemical; conditions: for remaining activity at 1 % / Residual enzyme activity (relative ratio, %) after immersion for 7 days / Residual enzyme activity (relative ratio, %) after immersion for 30 days / remaining activity at 0.1 % / remaining activity at 70 % / remaining activity at 0.01 %: 18°-20° C.; for remaining activity at 0.1 %: chemical 0.1%; for remaining activity at 70 %: chemical 70%; for remaining activity at 0.01 %: chemical 0.01%
T1 construct: host or cells: Aspergillus oryzae
Text: As the immobilized lactase was used one prepared by using a macroporous phenol-formaldehyde type amphoteric ion-exchange resin (particle size: 250-840μ) as the carrier, making the same adsorb the lactase derived from Aspergillus oryzae and carrying out the glutaraldehyde treatment to cause immobilization by covalent linkage [EPC publication No. 26672 (published on Apr. 8, 1981)].
(2) Residual enzyme activity
[…] […] The sample was sufficiently washed with an excessively large amount of water and a 0.05 M acetate buffer solution at pH 4.5 and then the residual activity was measured.
In 30 ml of lactose solution having a concentration of 13.3 (W/V) % prepared by dissolving lactose in a 0.05 M acetate buffer solution of pH 4.5 was immersed 0.2-0.25 ml of an immobilized lactase. The reaction was allowed to proceed at 30° C. under reciprocating shaking (more than 100 rpm with an amplitude larger than 3.5 cm) for 15 minutes. Then the amount of glucose produced was determined with a glucose oxidase-peroxidase-dye system. The amount of enzyme which produces 1μ mol of glucose per minute is defined as one unit (1 ILU). The dry weight of an immobilized lactase is determined as mentioned below. That is, after the termination of the reaction, the immobilized lactase was filtered, dried at 50° C. under reduced pressure for 8 hours or more, placed in a desiccator at room temperature (18°-25° C.) for 1.5 hours or more, the weight thereof was then measured and this value is regarded as the dry weight of the immobilized lactase. The activity of an immobilized lactase is represented by the unit per gram of dry weight (1 ILU/g-IML).

[3] = 168 h, chemical 1%, relative to 860 ILU/g-IML before immersion, read-out: Residual enzyme activity (relative ratio, %) after immersion for 7 days
[4] = 720 h, chemical 1%, relative to 860 ILU/g-IML before immersion, read-out: Residual enzyme activity (relative ratio, %) after immersion for 30 days
[5] = chemical 10%, relative to 860 ILU/g-IML
[6] = 168 h, relative to 860 ILU/g-IML, read-out: Residual enzyme activity (relative ratio, %) after immersion for 7 days
[7] = 720 h, relative to 860 ILU/g-IML, read-out: Residual enzyme activity (relative ratio, %) after immersion for 30 days
[8] = chemical 1%, relative to 860 ILU/g-IML before immersion
[9] = concentration of chemical 0.01%

T1 sequence (Q2UCU3 19-1005): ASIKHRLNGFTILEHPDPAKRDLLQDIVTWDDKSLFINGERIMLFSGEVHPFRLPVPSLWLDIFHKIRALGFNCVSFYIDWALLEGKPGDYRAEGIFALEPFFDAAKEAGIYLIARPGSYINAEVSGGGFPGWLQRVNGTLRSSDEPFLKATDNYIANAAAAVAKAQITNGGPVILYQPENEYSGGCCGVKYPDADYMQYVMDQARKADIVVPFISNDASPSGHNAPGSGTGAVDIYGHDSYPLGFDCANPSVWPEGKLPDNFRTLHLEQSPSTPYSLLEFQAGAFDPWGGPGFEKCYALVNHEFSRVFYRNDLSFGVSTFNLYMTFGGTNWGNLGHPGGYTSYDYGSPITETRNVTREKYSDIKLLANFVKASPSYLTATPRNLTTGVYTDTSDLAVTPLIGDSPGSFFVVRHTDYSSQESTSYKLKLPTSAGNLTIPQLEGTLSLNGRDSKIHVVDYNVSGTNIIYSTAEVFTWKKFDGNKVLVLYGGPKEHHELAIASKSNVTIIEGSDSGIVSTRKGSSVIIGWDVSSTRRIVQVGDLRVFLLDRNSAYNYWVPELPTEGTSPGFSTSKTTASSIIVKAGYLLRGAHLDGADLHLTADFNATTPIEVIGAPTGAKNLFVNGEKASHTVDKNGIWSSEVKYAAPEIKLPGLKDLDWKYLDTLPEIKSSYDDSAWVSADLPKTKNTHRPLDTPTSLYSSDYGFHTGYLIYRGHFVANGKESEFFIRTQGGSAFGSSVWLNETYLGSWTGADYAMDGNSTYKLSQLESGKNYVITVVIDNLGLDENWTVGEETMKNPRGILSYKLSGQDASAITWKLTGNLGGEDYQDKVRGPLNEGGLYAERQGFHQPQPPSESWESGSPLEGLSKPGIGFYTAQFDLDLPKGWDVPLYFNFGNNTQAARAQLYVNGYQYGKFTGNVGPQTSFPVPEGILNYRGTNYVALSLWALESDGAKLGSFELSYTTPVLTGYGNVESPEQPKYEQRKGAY

SMILES	Number of viable cells after 1 hr. ([1]; concentration of chemical 1%)	Number of viable cells after 7 days ([1]; concentration of chemical 1%)	remaining activity at 1 % [2, 3]	remaining activity at 1 % [2, 4]	also measured
CC(=O)O [Acetic acid]	⊖	⊖	102%	100%	
O=C(O)CC(O)C(=O)O (stereo not shown) [Malic acid]	⊖	⊖	101%	100%	
[Cl-].[Na+] [Sodium chloride]					Number of viable cells after 1 hr. ([1]; concentration of chemical 10%): ⊖ to ⊕; Number of viable cells after 7 days ([1]; concentration of chemical 10%): ⊖; Residual enzyme activity (relative ratio, %) after immersion for 7 days [2, 5]: 100%; Residual enzyme activity (relative ratio, %) after immersion for 30 days [2, 5]: 98%
CC(O)C(=O)O (stereo not shown) [Lactic acid]	⊖ to ⊕	⊖	103%	101%	decrease of activity of immobilized lactase on immersion ([2]; 1% solution, five months at room temperature (18°-25° C.)): completely no decrease of activity
CC(=O)C1C(=O)C=C(C)OC1=O (stereo not shown) [Dehydroacetic acid]					Number of viable cells after 1 hr. ([1]; concentration of chemical 0.1%): ⊖; Number of viable cells after 7 days ([1]; concentration of chemical 0.1%): ⊖; remaining activity at 0.1 % [2, 6]: 98%; remaining activity at 0.1 % [2, 7]: 102%
O=CCCCC=O [Glutaraldehyde]	⊖	⊖	102%	98%	
OO [35% H2 O2 solution, hydrogen peroxide]	⊖	⊖			Residual enzyme activity (relative ratio, %) after immersion for 7 days [2, 8]: 100%; Residual enzyme activity (relative ratio, %) after immersion for 30 days [2, 8]: 98%
CCO [Ethyl alcohol]					Number of viable cells after 1 hr. ([1]; concentration of chemical 70%): ⊖; Number of viable cells after 7 days ([1]; concentration of chemical 70%): ⊖; decrease of activity of immobilized lactase on immersion ([2]; 70% solution, immersed for a long period at 18°-20° C.): decrease of activity to some extent; remaining activity at 70 % [2, 6]: 84%; remaining activity at 70 % [2, 7]: 67%
C/C=C/C=C/C(=O)[O-].[K+] [Potassium sorbate]	⊖	⊖	103%	101%	
OCl [Sodium hypochlorite]					Number of viable cells after 1 hr. [1, 9]: ⊖; Number of viable cells after 7 days [1, 9]: ⊖; decrease of activity of immobilized lactase on immersion ([2]; 0.01% solution, immersed for a long period at 18°-20° C.): decrease of activity to some extent; remaining activity at 0.01 % [2, 6]: 96%; remaining activity at 0.01 % [2, 7]: 92%
